Key:
Assay type in all cases: biochemical
[1] = target: T1, human p70S6 kinase (p70S6K, kinase domain residues 1-421, T412E mutation) (Homo sapiens, UniProt P23443, T412E); test: p70S6 kinase assay, Luciferase-Coupled Chemiluminescent Kinase assay (LCCA); conditions: 5 μM ATP, 12 nM p70S6K; read-out: p70S6K inhibition IC50
T1 construct: human p70S6 kinase domainresidues 1-421, containing a T412E mutation; made in house
Experimental: (§1) Kinase activity and compound inhibition are investigated using one or more of the three assay formats described below. The ATP concentrations for each assay are selected to be close to the Michaelis-Menten constant (KM) for each individual kinase. Dose-response experiments are performed at 10 different inhibitor concentrations in a 384-well plate format. The data are fitted to four-parameter equation (2) below; where Y is the observed signal, X is the inhibitor concentration, Min is the background signal in the absence of enzyme (0% enzyme activity), Max is the signal in the absence of inhibitor (100% enzyme activity), IC50 is the inhibitor concentration at 50% enzyme inhibition and H represents the empirical Hill's slope to measure the cooperativity. Typically H is close to unity. Y=Min+(Max−Min)/(1+(X/IC50)^H) Equation (2) p70S6 Kinase Assay
Biochemical activity of p70S6 kinase was assessed using a Luciferase-Coupled Chemiluminescent Kinase assay (LCCA) format. Kinase activity was measured as the percent ATP remaining following the kinase reaction. Remaining ATP was detected by luciferase-luciferin-coupled chemiluminescence. Specifically, the reaction was initiated by mixing test compounds, 5 μM ATP, 5 μM RRRLSSLRA peptide and 12 nM p70S6K (baculovirus expressed human p70S6 kinase domainresidues 1-421, containing a T412E mutation) in a 20 uL assay buffer (20 mM Tris-HCL pH 7.5, 10 mM MgCl2, 0.02% Triton X-100, 100 mM DTT, 2 mM MnCl2). The mixture is incubated at ambient temperature for 2 hours after which 20 μL luciferase-luciferin mix is added and the chemiluminescent signal read using a Wallac Victor^2 reader. The luciferase-luciferin mix consists of 50 mM HEPES, pH 7.8, 8.5 μg/mL oxalic acid (pH 7.8), 5 (or 50) mM DTT, 0.4% Triton X-100, 0.25 mg/mL coenzyme A, 63 uM AMP, 28 μg/mL luciferin and 40,000 units/mL luciferase.

[2] = target: T2, human Akt1 kinase (kinase domain residues R144-A480, activated with PDK1) (Homo sapiens, UniProt P31749); test: Akt1 kinase assay, Luciferase-Coupled Chemiluminescent Kinase assay (LCCA); conditions: 1 μM ATP, 1.3 nM Akt1; read-out: Akt-1 inhibition IC50
T2 construct: made in house
T2 sequence (P31749 144-480): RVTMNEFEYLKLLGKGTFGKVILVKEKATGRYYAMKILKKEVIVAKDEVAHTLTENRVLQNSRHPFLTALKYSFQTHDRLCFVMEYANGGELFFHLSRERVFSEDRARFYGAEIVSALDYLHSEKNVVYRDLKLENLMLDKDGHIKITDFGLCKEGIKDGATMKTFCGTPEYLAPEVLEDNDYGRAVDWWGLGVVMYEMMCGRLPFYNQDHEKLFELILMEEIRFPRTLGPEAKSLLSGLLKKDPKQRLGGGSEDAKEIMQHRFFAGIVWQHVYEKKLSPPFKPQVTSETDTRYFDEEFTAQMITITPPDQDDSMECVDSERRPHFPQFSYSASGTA
Experimental: as §1
Biochemical activity of Akt1 kinase was assessed using a Luciferase-Coupled Chemiluminescent Kinase assay (LCCA) format. Kinase activity was measured as the percent ATP remaining following the kinase reaction. Remaining ATP was detected by luciferase-luciferin-coupled chemiluminescence. Specifically, the reaction was initiated by mixing test compounds, 1 μM ATP, 5 μM crosstide peptide and 1.3 nM Akt1 (baculovirus expressed human Akt1 kinase domain residues R144-A480, activated with PDK1) in a 20 uL assay buffer (20 mM Tris-HCL pH 7.5, 10 mM MgCl2, 0.01% Triton X-100, 1 mM DTT, 3 mM MnCl2). The mixture is incubated at ambient temperature for 3 hours after which 20 μL luciferase-luciferin mix is added and the chemiluminescent signal read using a Wallac Victor2 reader. The luciferase-luciferin mix consists of 50 mM HEPES, pH 7.8, 8.5 μg/mL oxalic acid (pH 7.8), 5 (or 50) mM DTT, 0.4% Triton X-100, 0.25 mg/mL coenzyme A, 63 uM AMP, 28 μg/mL luciferin and 40,000 units/mL luciferase.

[3] = target: T3, human Akt2 kinase (kinase domain residues K146-R480) (Homo sapiens, UniProt P31751); test: Akt2 kinase assay, Luciferase-Coupled Chemiluminescent Kinase assay (LCCA); conditions: 2 μM ATP, 10 nM Akt2; read-out: Akt-2 inhibition IC50
T3 construct: human Akt2 kinase domain residues K146-R480; made in house
T3 sequence (P31751 146-480): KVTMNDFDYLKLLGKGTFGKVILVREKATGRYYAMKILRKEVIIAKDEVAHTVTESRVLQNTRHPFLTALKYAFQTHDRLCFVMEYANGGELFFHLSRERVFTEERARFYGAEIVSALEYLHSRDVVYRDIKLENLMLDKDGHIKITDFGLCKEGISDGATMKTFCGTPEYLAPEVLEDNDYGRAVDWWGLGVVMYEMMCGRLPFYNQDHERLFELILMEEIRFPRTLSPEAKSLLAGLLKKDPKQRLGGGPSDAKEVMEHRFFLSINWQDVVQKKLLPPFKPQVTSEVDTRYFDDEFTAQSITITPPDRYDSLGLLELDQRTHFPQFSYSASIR
Experimental: as §1
Biochemical activity of Akt2 kinase was assessed using a Luciferase-Coupled Chemiluminescent Kinase assay (LCCA) format. Kinase activity was measured as the percent ATP remaining following the kinase reaction. Remaining ATP was detected by luciferase-luciferin-coupled chemiluminescence. Specifically, the reaction was initiated by mixing test compounds, 2 μM ATP, 5 μM crosstide peptide and 10 nM Akt2 (baculovirus expressed human Akt2 kinase domain residues K146-R480) in a 20 uL assay buffer (20 mM Tris-HCL pH 7.5, 10 mM MgCl2, 0.03% Triton X-100, 1 mM DTT, 3 mM MnCl2). The mixture is incubated at ambient temperature for 2 hours after which 20 μL luciferase-luciferin mix is added and the chemiluminescent signal read using a Wallac Victor2 reader. The luciferase-luciferin mix consists of 50 mM HEPES, pH 7.8, 8.5 μg/mL oxalic acid (pH 7.8), 5 (or 50) mM DTT, 0.4% Triton X-100, 0.25 mg/mL coenzyme A, 63 uM AMP, 28 μg/mL luciferin and 40,000 units/mL luciferase.

T1 sequence (P23443 1-421 T412E): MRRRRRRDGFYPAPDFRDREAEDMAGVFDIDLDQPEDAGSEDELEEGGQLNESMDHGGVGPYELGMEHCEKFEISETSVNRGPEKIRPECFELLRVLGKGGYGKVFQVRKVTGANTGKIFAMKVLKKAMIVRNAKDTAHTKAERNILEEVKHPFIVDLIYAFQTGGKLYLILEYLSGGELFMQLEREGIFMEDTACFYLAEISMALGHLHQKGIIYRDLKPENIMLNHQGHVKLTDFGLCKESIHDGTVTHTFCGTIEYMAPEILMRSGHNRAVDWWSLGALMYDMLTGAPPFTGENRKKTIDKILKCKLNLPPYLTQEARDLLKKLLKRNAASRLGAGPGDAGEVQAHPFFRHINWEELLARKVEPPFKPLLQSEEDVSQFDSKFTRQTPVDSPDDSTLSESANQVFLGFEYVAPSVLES

**Q.** How did the IC50 [1] turn out when CN(C)CCOC(c1ccc(Cl)cc1)C1CCN(c2ncnc3[nH]nc(Br)c23)CC1 (centres unmarked) [Entry 2, 2-{[[1-(3-bromo-1H-pyrazolo[3,4-d]pyrimidin-4-yl)piperidin-4-yl](4-chlorophenyl)methyl]oxy}-N,N-dimethylethanamine] was run?
**A.** < 50 nM

**Q.** And the IC50 [2]?
**A.** < 50 nM

**Q.** And the IC50 [3]?
**A.** 50 to 500 nM

**Q.** For CC(C)(C)c1ccc(CN2CCN(c3ncnc4[nH]nc(Br)c34)CC2)cc1 [Entry 7, 3-bromo-4-(4-{[4-(1,1-dimethylethyl)phenyl]methyl}piperazin-1-yl)-1H-pyrazolo[3,4-d]pyrimidine], which IC50 [1] is on record?
**A.** < 50 nM

**Q.** What about the IC50 [2] of the same molecule?
**A.** > 2000 nM

**Q.** What about the IC50 [3] of the same molecule?
**A.** > 2000 nM

**Q.** What does the source list for FC(F)(F)c1ccc(CN2CCN(c3ncnc4[nH]nc(Br)c34)CC2)cc1 [Entry 11, 3-bromo-4-(4-{[4-(trifluoromethyl)phenyl]methyl}piperazin-1-yl)-1H-pyrazolo[3,4-d]pyrimidine]?
**A.** IC50 [1]: < 50 nM; IC50 [2]: 500 to 2000 nM; IC50 [3]: > 2000 nM

**Q.** How did the IC50 [1] turn out when Clc1ccc(CN2CCN(c3ncnc4[nH]nc(Br)c34)CC2)cc1 [Entry 19, 3-bromo-4-{4-[(4-chlorophenyl)methyl]piperazin-1-yl}-1H-pyrazolo[3,4-d]pyrimidine] was run?
**A.** < 50 nM

**Q.** And the IC50 [2]?
**A.** 50 to 500 nM

**Q.** What about the IC50 [3] of the same molecule?
**A.** > 2000 nM

**Q.** For Clc1ccc(CN2CCN(c3ncnc4[nH]nc(Br)c34)CC2)cc1Cl [Entry 27, 3-bromo-4-{4-[(3,4-dichlorophenyl)methyl]piperazin-1-yl}-1H-pyrazolo[3,4-d]pyrimidine], which IC50 [1] is on record?
**A.** < 50 nM

**Q.** And the IC50 [2]?
**A.** 50 to 500 nM

**Q.** And the IC50 [3]?
**A.** > 2000 nM

**Q.** For CCc1n[nH]c2ncnc(N3CCC([C@@H](OCCN(C)C)c4ccc(Cl)cc4)CC3)c12 [Entry 88, 2-({(R)-(4-chlorophenyl)[1-(3-ethyl-1H-pyrazolo[3,4-d]pyrimidin-4-yl)piperidin-4-yl]methyl}oxy)-N,N-dimethylethanamine], which IC50 [1] is on record?
**A.** < 50 nM

**Q.** What about the IC50 [2] of the same molecule?
**A.** < 50 nM

**Q.** How did the IC50 [1] turn out when CN(C)CCO[C@H](c1ccc(Cl)cc1)C1CCN(c2ncnc3[nH]nc(Br)c23)CC1 [Entry 89, 2-{[(S)-[1-(3-bromo-1H-pyrazolo[3,4-d]pyrimidin-4-yl)piperidin-4-yl](4-chlorophenyl)methyl]oxy}-N,N-dimethylethanamine] was run?
**A.** < 50 nM

**Q.** What about the IC50 [2] of the same molecule?
**A.** < 50 nM

**Q.** Clc1ccc([C@H](OCCN2CCCC2)C2CCN(c3ncnc4[nH]nc(Br)c34)CC2)cc1 [Entry 90, 3-bromo-4-(4-{(R)-(4-chlorophenyl)[(2-pyrrolidin-1-ylethyl)oxy]methyl}piperidin-1-yl)-1H-pyrazolo[3,4-d]pyrimidine] was tested. Which IC50 [1] did it give?
**A.** < 50 nM

**Q.** What about the IC50 [2] of the same molecule?
**A.** < 50 nM

**Q.** What does the source list for CN(C)CCCC(O)(c1ccc(Cl)cc1)C1CCN(c2ncnc3[nH]nc(Br)c23)CC1 (centres unmarked) [Entry 91, 1-[1-(3-bromo-1H-pyrazolo[3,4-d]pyrimidin-4-yl)piperidin-4-yl]-1-(4-chlorophenyl)-4-(dimethylamino)butan-1-ol]?
**A.** IC50 [1]: < 50 nM; IC50 [2]: < 50 nM

**Q.** CN(C)CCO[C@@H](c1ccc(Cl)c(F)c1)C1CCN(c2ncnc3[nH]nc(Br)c23)CC1 [Entry 92, 2-{[(R)-[1-(3-bromo-1H-pyrazolo[3,4-d]pyrimidin-4-yl)piperidin-4-yl](4-chloro-3-fluorophenyl)methyl]oxy}-N,N-dimethylethanamine] was tested. Which IC50 [1] did it give?
**A.** < 50 nM

**Q.** And the IC50 [2]?
**A.** < 50 nM

**Q.** With Clc1ccc([C@H](OCCN2CCCCC2)C2CCN(c3ncnc4[nH]nc(Br)c34)CC2)cc1 [Entry 93, 3-bromo-4-(4-{(R)-(4-chlorophenyl)[(2-piperidin-1-ylethyl)oxy]methyl}piperidin-1-yl)-1H-pyrazolo[3,4-d]pyrimidine] as the molecule, how does the IC50 [1] read?
**A.** < 50 nM

**Q.** What about the IC50 [2] of the same molecule?
**A.** < 50 nM

**Q.** With CN(C)CCCC(c1ccc(Cl)cc1)C1CCN(c2ncnc3[nH]nc(Br)c23)CC1 (centres unmarked) [Entry 94, 4-[1-(3-bromo-1H-pyrazolo[3,4-d]pyrimidin-4-yl)piperidin-4-yl]-4-(4-chlorophenyl)-N,N-dimethylbutan-1-amine] as the molecule, how does the IC50 [1] read?
**A.** < 50 nM

**Q.** What about the IC50 [2] of the same molecule?
**A.** < 50 nM

**Q.** For Clc1ccc([C@H](OCCN2CCOCC2)C2CCN(c3ncnc4[nH]nc(Br)c34)CC2)cc1 [Entry 95, 3-bromo-4-(4-{(R)-(4-chlorophenyl)[(2-morpholin-4-ylethyl)oxy]methyl}piperidin-1-yl)-1H-pyrazolo[3,4-d]pyrimidine], which IC50 [1] is on record?
**A.** < 50 nM

**Q.** What about the IC50 [2] of the same molecule?
**A.** < 50 nM

**Q.** With CN(Cc1ccco1)C(c1ccc(F)cc1)C1CCN(c2ncnc3[nH]nc(Br)c23)CC1 (centres unmarked) [Entry 96, 1-[1-(3-bromo-1H-pyrazolo[3,4-d]pyrimidin-4-yl)piperidin-4-yl]-1-(4-fluorophenyl)-N-(furan-2-ylmethyl)-N-methylmethanamine] as the molecule, how does the IC50 [1] read?
**A.** 50 to 500 nM

**Q.** What about the IC50 [2] of the same molecule?
**A.** 500 to 2000 nM

**Q.** With CN(Cc1ccccn1)C(c1ccc(F)cc1)C1CCN(c2ncnc3[nH]nc(Br)c23)CC1 (centres unmarked) [Entry 97, 1-[1-(3-bromo-1H-pyrazolo[3,4-d]pyrimidin-4-yl)piperidin-4-yl]-1-(4-fluorophenyl)-N-methyl-N-(pyridin-2-ylmethyl)methanamine] as the molecule, how does the IC50 [1] read?
**A.** 50 to 500 nM

**Q.** What about the IC50 [2] of the same molecule?
**A.** 500 to 2000 nM

**Q.** Which IC50 [1] does the source give for CN(C)c1ccc(CN(C)C(c2ccc(F)cc2)C2CCN(c3ncnc4[nH]nc(Br)c34)CC2)cc1 (centres unmarked) [Entry 98, 4-{[{[1-(3-bromo-1H-pyrazolo[3,4-d]pyrimidin-4-yl)piperidin-4-yl](4-fluorophenyl)methyl}(methyl)amino]methyl}-N,N-dimethylaniline] here?
**A.** < 50 nM

**Q.** And the IC50 [2]?
**A.** 50 to 500 nM

**Q.** For OC(c1ccc2cc[nH]c2c1)N1CCN(c2ncnc3[nH]nc(Br)c23)CC1 (centres unmarked) [Entry 99, [4-(3-bromo-1H-pyrazolo[3,4-d]pyrimidin-4-yl)piperazin-1-yl](1H-indol-6-yl)methanol], which IC50 [1] is on record?
**A.** 50 to 500 nM

**Q.** And the IC50 [2]?
**A.** 500 to 2000 nM

**Q.** Which results are given for Fc1cc([C@H](OCCN2CCCC2)C2CCN(c3ncnc4[nH]nc(Br)c34)CC2)ccc1Cl [Entry 100, 3-bromo-4-(4-{(R)-(4-chloro-3-fluorophenyl)[(2-pyrrolidin-1-ylethyl)oxy]methyl}piperidin-1-yl)-1H-pyrazolo[3,4-d]pyrimidine]?
**A.** IC50 [1]: < 50 nM; IC50 [2]: < 50 nM

**Q.** Which results are given for Clc1ccc(OC2CCN(c3ncnc4[nH]nc(Br)c34)CC2)cc1 [Entry 101, 3-bromo-4-{4-[(4-chlorophenyl)oxy]piperidin-1-yl}-1H-pyrazolo[3,4-d]pyrimidine]?
**A.** IC50 [1]: 50 to 500 nM; IC50 [2]: 500 to 2000 nM

**Q.** With CCN(CC)CCO[C@@H](c1ccc(Cl)cc1)C1CCN(c2ncnc3[nH]nc(Br)c23)CC1 [Entry 102, 2-{[(R)-[1-(3-bromo-1H-pyrazolo[3,4-d]pyrimidin-4-yl)piperidin-4-yl](4-chlorophenyl)methyl]oxy}-N,N-diethylethanamine] as the molecule, how does the IC50 [1] read?
**A.** < 50 nM

**Q.** And the IC50 [2]?
**A.** < 50 nM

**Q.** Which IC50 [1] does the source give for Clc1ccc(OC2CCN(c3ncnc4[nH]nc(Br)c34)CC2)c(NCCN2CCCC2)c1 [Entry 103, 2-{[1-(3-bromo-1H-pyrazolo[3,4-d]pyrimidin-4-yl)piperidin-4-yl]oxy}-5-chloro-N-(2-pyrrolidin-1-ylethyl)aniline] here?
**A.** 50 to 500 nM

**Q.** And the IC50 [2]?
**A.** 50 to 500 nM

Source: patent US7994172B2, “[1H-pyrazolo[3, 4-D]pyrimidin-4-yl]-piperidine or -piperazine compounds as serine-theoronine kinase modulators (P70s6k, Atk1 and Atk2) for the treatment of immunological, inflammatory and proliferative diseases” (Exelixis, Inc., priority 2004, dated 2011)
